The values that follow come from patent US9162993B2, “Preparation and pharmaceuticals of biphenyl benzamide-derived derivatives” (NATIONAL DEFENSE MEDICAL CENTER, priority 2012, dated 2015).

The nature of data set [1]: MTT assay, RAW264.7 cell viability. It counts as cell-based. Conditions: mouse; RAW 264.7 cells; cytotoxic concentration that produces 50% cell death. The method, then:
(§1) The compounds 1 to 24 of the present invention is tested by three pharmacological activity tests as follows: (1) MTT assay to test the RAW264.7 cell (murine monocyte/macrophage cell line) viability; (2) Tartrate-resistant acid phosphatase (TRAP) staining and activity analysis to investigate the cell differentiation activity; (3) The activity test of bone resorption (Pit formation assay).
(§2) The synthesized difunisal derivatives, compounds 1 to 24, were pharmacologically tested to be identified the relationship between their structure and activity. Cell viability was measured by MTT assay in RAW 264.7 cells upon treatment with compounds at 5 μM. CC50 is the cytotoxic concentration that produces 50% (CC50) cell death. […] The multinucleated osteoclasts could be formed by RANKL-induced macrophage cell line […]. RAW 264.7 cells were cultured with the indicated in the presence of drug and RANKL (100 ng/mL). Numbers of TRAP-positive (TRAP^+) multinucleated cells (MNCs) were counted in the presence of RANKL to identify the relationship between osteoclast and bone formation. […] The compound 16 performed the best inhibitory effect in the TRAP staining. The compound 16 was a derivate from compound 4 and its structure was related to compound 4. Therefore, the compound 4 and 16 were performed by TRAP assay to evaluate the effect on osteoclast differentiation by different concentration of compounds. […] According to above result, it can be speculated that: (1) Due to different substitutes on benzene ring of difunisal, the inhibitory ability of RANKL-induced osteoclast differentiation would be different. (2) Due to the electron-withdrawing group substitutes of R1 and R4 on benzene ring, or electron-withdrawing group substitutes derivatives of R2 on benzene ring, such as compound 4. (R1═F and R4═F), compound 6 (R2═CF3), compound 9 (R2═CN) and compound 16 (R1═F and R4═F), (3) compound 4 (R1═F and R4═F) and compound 6 (R2═CF3), a cyclic derivate compound 16 (R1═F and R4═F) and compound 18 (R2═CF3), the inhibitory activity would be stronger.

A further data set deals with RAW 264.7 cells. Briefly: MTT assay, RAW264.7 cell viability. It counts as cell-based. Conditions: MTT assay, compounds at 5 μM. The method, then: as §1, §2
In data set [2] the test system is RANKL-induced osteoclast differentiation in RAW 264.7 cells. As to the kind of experiment: TRAP staining, RANKL-induced osteoclast differentiation (TRAP+ multinucleated cells). It counts as cell-based, murine. Conditions: Mus musculus; for inhibition at 5 µM: RAW264.7, RAW 264.7 cells, RANKL (100 ng/mL), compounds at 5 μM, TRAP-positive multinucleated cells, read-out: Inhibition of MNCs (%); for IC50: RAW264.7, different concentrations of compound, FIG. 1A, read-out: TRAP inhibitory activity IC50. Here is the method: as §1, §2

Data set [3] concerns RANKL-induced resorption of osteoclast (RAW264.7 cells). Briefly: Pit formation assay (bone resorption activity). Conditions: 5 μM, dentine slices, 4 days, FIG. 1B. It counts as cell-based, murine. The method, then: as §1
By using pit formation assay, compounds 4 and 16 have effect on inhibition of resorption of osteoclast. RAW264.7 cells were cultured without compounds (compound 4 or compound 16, 5 μM) or treated with compounds (compound 4 or compound 16, 5 μM) in 24 well dentine slices plates in the presence of RANKL after 4 days, to identify the ability of resorption of osteoclast by observing the resorption pits formation. […] It was obvious that compound 4 or 16 could inhibit the RANKL-induced resorption of osteoclast (FIG. 3A to D).

Another data set has as its system NO production. As to the kind of experiment: Measurement of NO concentrations (Griess reaction) in porcine chondrocytes. It counts as cell-based. Conditions: Sus scrofa, Chondrocyte, nitrite in supernatants, read-out: anti-inflammatory IC50 (μM) on NO production. The method, then:
Porcine cartilage was obtained from the hind leg joints of pigs. The synthesis of chondrocytes from cartilage was performed according to our previous report. After enzymatic digestion of articular cartilage with 2 mg/mL protease in serum-free Dulbecco's modified Eagle's medium (DMEM)/antibiotics, the specimens were then digested overnight with 2 mg/mL collagenase I and 0.9 mg/ml, hyaluronidase in DMEM containing 10% fetal bovine serum (FBS). The cells were collected, passed through a cell strainer (Becton Dickinson, Mountain View, Calif., USA), and cultured in DMEM containing 10% […] and antibiotics for 3-4 days before use.
The measurement of NO release was reflected by determination of its stable end product, nitrite, in supernatants. The Griess reaction was performed with the concentrations of nitrite measured by a spectrophotometer. In brief, an aliquot (100 μL) of culture supernatant was incubated with 50 μL of 0.1% sulfanilamide in 5% phosphoric acid and 50 μL of 0.1% N-1-naphthyl-ethylenediamine dihydrochloride. After 10 min of incubation at room temperature, the absorbance was measured at 550 nm wavelength with a plate reader (recall, Grodig, […]).

Bounds are passed on as bounds.

`O=C(Nc1cc(F)ccc1F)c1cc(-c2ccc(F)cc2F)ccc1O` [compound 4, N-(2,5-difluorophenyl)-2′,4′-difluoro-4-hydroxy-[1,1′-biphenyl]-3-carboxamide]: the CC50 in data set [1] worked out at 14600 nM. Moreover, the “Cell viability (%)” value with RAW 264.7 cells worked out at 102.46 ± 1.10%. For the same compound, in data set [2], the inhibition at 5 µM came to 67.3 ± 4.38% and the IC50 was 3890 nM. The “resorbed area compared to the cell cultured without drug in the presence of RANKL” value in data set [3] was 23.11±2.25%. Besides, the half-maximal inhibitory concentration (IC50) with NO production amounted to 0.71 µM.

`O=c1oc2ccc(-c3ccc(F)cc3F)cc2c(=O)n1-c1cc(F)ccc1F` [compound 16, 6-(2,4-difluorophenyl)-3-(2,5-difluorophenyl)-2H-benzo[e][1,3]oxazine-2,4(3H)-dione] showed a CC50 in data set [1] of 10800 nM. In the data set on RAW 264.7 cells, the “Cell viability (%)” value turned out to be 86.60 ± 5.69%. Further, in data set [2], the inhibition at 5 µM came out at 86.8 ± 1.74% and the concentration for half-maximal inhibition (IC50) is below 2500 nM. Besides, in data set [3], the “resorbed area compared to the cell cultured without drug in the presence of RANKL” value was 20.11±1.51%. The 50% inhibitory concentration (IC50) with NO production came to 1.15 µM.

The compound `COc1ccc(-n2c(=O)oc3ccc(-c4ccc(F)cc4F)cc3c2=O)cc1OC` [compound 23, 6-(2,4-difluorophenyl)-3-(3,4-dimethoxyphenyl)-2H-benzo[e][1,3]oxazine-2,4(3H)-dione] displayed a CC50 in data set [1] above 20000 nM. The “Cell viability (%)” value in the data set on RAW 264.7 cells was 103.05 ± 4.03%. The inhibition at 5 µM in data set [2] was 21.2 ± 2.49%. Further, in the data set with NO production, the IC50 was 0.47 µM.

In data set [1], `COc1cccc(-n2c(=O)oc3ccc(-c4ccc(F)cc4F)cc3c2=O)c1` [compound 24, 6-(2,4-difluorophenyl)-3-(3-methoxyphenyl)-2H-benzo[e][1,3]oxazine-2,4(3H)-dione] came in with a cytotoxic concentration (CC50) above 20000 nM. Further, the “Cell viability (%)” value in the data set on RAW 264.7 cells turned out to be 105.53 ± 4.7%. In data set [2], the inhibition at 5 µM was found to be 30.8 ± 5.77%. In addition, in the data set on NO production, the concentration for half-maximal inhibition (IC50) turned out to be 1.95 µM.
